Experimental data: patent publication US12006314B2, “Anti-cancer nuclear hormone receptor-targeting compounds” (Nuvation Bio Inc., priority 2021, dated 2024)
Positions count from the first letter of the chain named. pIC50: −log10 of the molar value.

Legend:
MDAMB361 cells = assay: Cell viability assay MDAMB361; format: cell-based; details: Homo sapiens, MDA-MB-361, 144 h; 6 days, CellTiterGlo
Description: (§1) Cell viability assay: LNCap, 22Rv1, MCF7, MDAMB361, T47D, and IEC6 cells were seeded at a density of 500-2000 cells/well in 96 well plates, and a ‘T0’ (timepoint 0) was included along with the assay plate. The plates were then incubated at 37° C., 5% CO2 in a cell culture incubator overnight. On the next day, the ‘T0’ plate was assayed using CellTiterGlo (Promega, Inc) according to the manufacturer's instructions. The appropriate compounds were diluted in DMSO and added to the assay plate (final DMSO concentration of 0.1-0.2%) on the next day. The assay plates were incubated for 6 days at 37° C., 5% CO2. After the incubation period, the plates were assayed using CellTiterGlo (Promega, Inc) according to the manufacturer's instructions and luminescence was read on the EnVision plate reader. Inhibition of the tested compounds was determined by the following formula: Inhibition rate (%)=(1−(RLU compound−RLU day0)/(RLU control−RLU day0))*100%. GraphPadPrism was used to analyze the data and determine GI50/IC50 values.

[1] = molecular target: T1, ER (SK-BR-3 cells transfected with ERE plasmid and ER) (Homo sapiens, UniProt P03372); assay: ER antagonism assay; format: cell-based; details: 100 nM β-Estradiol, 24 h, Dual-glo luciferase
T1 construct: expressed in transfected cells; host or cells: SK-BR-3 (transient, lipofectamine 3000)
T1 sequence (P03372 1-595): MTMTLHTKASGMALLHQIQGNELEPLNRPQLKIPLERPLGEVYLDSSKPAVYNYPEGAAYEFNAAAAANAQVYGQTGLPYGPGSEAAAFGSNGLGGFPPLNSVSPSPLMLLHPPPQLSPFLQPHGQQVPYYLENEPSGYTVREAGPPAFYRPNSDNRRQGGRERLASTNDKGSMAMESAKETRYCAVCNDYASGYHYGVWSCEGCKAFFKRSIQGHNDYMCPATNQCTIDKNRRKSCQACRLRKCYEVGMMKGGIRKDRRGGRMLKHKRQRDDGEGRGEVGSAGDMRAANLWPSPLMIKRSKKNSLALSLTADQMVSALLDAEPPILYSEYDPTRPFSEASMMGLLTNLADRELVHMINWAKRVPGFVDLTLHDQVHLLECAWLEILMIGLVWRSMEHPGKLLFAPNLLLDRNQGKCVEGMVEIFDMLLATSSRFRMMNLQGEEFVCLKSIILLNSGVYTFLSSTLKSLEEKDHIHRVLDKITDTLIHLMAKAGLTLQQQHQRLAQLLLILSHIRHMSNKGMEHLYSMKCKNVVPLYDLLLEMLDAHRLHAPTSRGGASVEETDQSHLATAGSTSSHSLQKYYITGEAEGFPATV
Description: ER antagonism assay: To evaluate ER antagonist activity, SK-BR-3 cells were seeded at a density of 30000 cells/well in the assay plate. The assay plate was then incubated at 37° C., 5% CO2 for 24 h. A mixture of ERE plasmid and ER in opti-MEM media was incubated with lipofectamine 3000 in Opti-MEM media and incubated at room temperature for 15 minutes. 10 μL of this transfection mix was added to each well of the assay plate and the assay plate was incubated at 37° C., 5% CO2 for 24 h. 100 nM β-Estradiol in 10 μL medium or 10 μL medium (control wells) was added to corresponding wells of assay plate and incubated at 37° C. 5% CO2 for 24 h. After the incubation period, 50 μL of Dual-glo luciferase reagent was added to the assay plate and mixed at room temperature for 20 mins on an orbital shaker, before reading out on the EnVision plate reader. 50 μL of Stop & Glo reagent was added to assay plate, mixed at room temperature for 20 minutes, and read on the Envision plate reader.

MCF7 cells = assay: Cell viability assay MCF7; format: cell-based; details: Homo sapiens, MCF7, 144 h; 6 days, CellTiterGlo
Description: as §1

IEC6 cells = assay: Cell viability assay IEC6; format: cell-based; details: Rattus norvegicus, IEC-6, 144 h; 6 days, CellTiterGlo
Description: as §1

22Rv1 cells = assay: Cell viability assay 22Rv1; format: cell-based; details: Homo sapiens, 22Rv1, 144 h; 6 days, CellTiterGlo
Description: as §1

[2] = molecular target: T2, AR (cytosol from LnCaP cells) (Homo sapiens, UniProt P10275, T878A); assay: AR binding assay; details: 3H-R1881 1 nM, 4° C. 24 hrs
T2 construct: endogenous in cells; host or cells: LNCaP cytosol
T2 sequence (P10275 1-920 T878A): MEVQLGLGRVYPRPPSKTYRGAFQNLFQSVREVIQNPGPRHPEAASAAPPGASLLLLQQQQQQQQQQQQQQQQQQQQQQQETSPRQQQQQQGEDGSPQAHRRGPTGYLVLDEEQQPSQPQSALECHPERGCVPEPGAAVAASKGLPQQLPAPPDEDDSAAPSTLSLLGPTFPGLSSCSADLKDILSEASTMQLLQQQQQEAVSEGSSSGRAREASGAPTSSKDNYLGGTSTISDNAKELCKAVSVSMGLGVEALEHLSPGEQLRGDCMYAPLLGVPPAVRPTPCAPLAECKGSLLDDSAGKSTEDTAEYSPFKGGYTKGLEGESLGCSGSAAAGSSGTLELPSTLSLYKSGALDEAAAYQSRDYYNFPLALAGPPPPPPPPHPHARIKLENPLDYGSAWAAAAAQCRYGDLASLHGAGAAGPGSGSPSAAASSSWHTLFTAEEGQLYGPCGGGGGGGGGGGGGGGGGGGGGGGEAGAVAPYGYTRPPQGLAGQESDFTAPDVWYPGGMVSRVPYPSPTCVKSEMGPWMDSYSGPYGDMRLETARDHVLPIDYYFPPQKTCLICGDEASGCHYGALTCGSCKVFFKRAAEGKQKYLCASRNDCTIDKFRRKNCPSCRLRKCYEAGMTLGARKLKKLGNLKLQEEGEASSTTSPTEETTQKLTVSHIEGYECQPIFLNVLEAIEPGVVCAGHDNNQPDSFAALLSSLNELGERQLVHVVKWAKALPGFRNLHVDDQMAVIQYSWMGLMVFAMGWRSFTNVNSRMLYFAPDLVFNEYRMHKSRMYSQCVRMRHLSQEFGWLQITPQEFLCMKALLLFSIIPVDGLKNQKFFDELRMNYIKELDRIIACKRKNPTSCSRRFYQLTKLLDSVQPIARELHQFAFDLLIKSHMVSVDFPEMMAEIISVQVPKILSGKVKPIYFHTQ
Description: AR binding assay: To assess AR binding, test compound (top dose 10 μM, 4 fold serial dilution, 8 point dose response) and control (progesterone) were transferred to the assay plate. Cytosol from LnCaP cells was added to the plate, followed by addition of radiolabeled ^3H-R1881 at a final concentration of 1 nM. The plate was sealed, and the reaction was incubated at 300 rpm at 4° C. for 24 hrs. Radioligand absorption buffer (10 mM Tris-HCl, pH 7.4; 1.5 mM EDTA; 1 mM DTT; 0.25% charcoal; 0.0025% dextran) was then added to the plate, mixed, and incubated at 4° C. for 15 minutes. The plate was then centrifuged at 3000 rpm for 30 minutes at 4° C. The supernatant was transferred to the scint-tube and Tri-carb was used for scintillation counting.

LNCap cells = assay: Cell viability assay LNCap; format: cell-based; details: Homo sapiens, 144 h, 6 days, CellTiterGlo
Description: as §1

[3] = molecular target: T3, full-length androgen receptor (HEK293 cells stably expressing) (Homo sapiens, UniProt P10275); assay: AR antagonism assay; format: cell-based; details: testosterone 1 nM, 20 h, Steady-glo
T3 construct: HEK293 cells stably expressing the full-length androgen receptor were seeded; expressed in transfected cells
T3 sequence (P10275 1-920): T2 sequence (P10275 1-920 T878A) with A878T
Description: AR antagonism assay: To evaluate AR antagonist activity, test compound was added to the assay plate (top dose 10 μM, 3 fold serial dilution, 10 point dose response). HEK293 cells stably expressing the full-length androgen receptor were seeded at a density of 20000 cells/well in the assay plate. The assay plate was then incubated at room temperature for 10 minutes and at 37° C., 5% CO2 for 20 minutes. Testosterone is added to the assay plate at 1 nM final concentration and the assay plate incubated at 37° C., 5% CO2 for 20 h. After the incubation period, Steady-glo was added to the assay plate and mixed at room temperature for 20 minutes on an orbital shaker, before reading out on the EnVision plate reader.

Row | SMILES | GI50 (MDAMB361 cells) | pIC50 [1] | GI50 (MCF7 cells) | pIC50 (IEC6 cells) | GI50 (22Rv1 cells) | pIC50 [2] | GI50 (LNCap cells) | pIC50 [3]
1 | CCc1cc2ncc(CN3CCN(CCOc4cc(F)c([C@@H]5c6[nH]c7ccccc7c6C[C@@H](C)N5CC(C)(C)F)c(F)c4)CC3)cc2[nH]c1=O [Compound 71, 7-((4-(2-(3,5-Difluoro-4-((1R,3R)-2-(2-fluoro-2-methylpropyl)-3-methyl-2,3,4,9-tetrahydro-1H-pyrido[3,4-b]indol-1-yl)phenoxy)ethyl)piperazin-1-yl)methyl)-3-ethyl-1,5-naphthyridin-2(1H)-one] | 0.5 to 5 µM | ≥ 7.00 | ≤ 0.5 µM | 5.30 to 6.30 |  |  |  | 
2 | CCc1cc2ncc(CN3CCN(CC4CCN(c5ccc(C(=O)N[C@H]6CC[C@H](Oc7ccc(C#N)c(Cl)c7)CC6)nn5)CC4)CC3)cc2[nH]c1=O [Compound 4, N-((1r,4r)-4-(3-Chloro-4-cyanophenoxy)cyclohexyl)-6-(4-((4-((7-ethyl-6-oxo-5,6-dihydro-1,5-naphthyridin-3-yl)methyl)piperazin-1-yl)methyl)piperidin-1-yl)pyridazine-3-carboxamide] |  |  |  | < 4.52 | ≤ 0.5 µM | > 7.00 | ≤ 0.5 µM | < 5.00
3 | CCc1cc2ncc(CN3CCN(c4ccc(-c5nnc([C@H]6[C@H](C)OC(=O)N6c6ccc(C#N)c(Cl)c6)o5)cc4)CC3)cc2[nH]c1=O [Compound 65, 2-Chloro-4-((4R,5S)-4-(5-(4-(4-((7-ethyl-6-oxo-5,6-dihydro-1,5-naphthyridin-3-yl)methyl)-piperazin-1-yl)phenyl)-1,3,4-oxadiazol-2-yl)-5-methyl-2-oxooxazolidin-3-yl)benzonitrile] |  |  |  | < 4.52 | > 30 µM | < 5.00 | 5 to 30 µM | < 5.00
4 | CCc1cc2ncc(CN3CCN(CC4CCN(c5ccc(C(=O)N[C@H]6C(C)(C)[C@H](Oc7ccc(C#N)c(Cl)c7)C6(C)C)nn5)CC4)CC3)cc2[nH]c1=O [Compound 13, N-((1r,3r)-3-(3-Chloro-4-cyanophenoxy)-2,2,4,4-tetramethylcyclobutyl)-6-(4-((4-((7-ethyl-6-oxo-5,6-dihydro-1,5-naphthyridin-3-yl)methyl)piperazin-1-yl)methyl)piperidin-1-yl)pyridazine-3-carboxamide] |  |  |  | 5.30 to 6.30 | 0.5 to 5 µM | > 7.00 | 0.5 to 5 µM | < 5.00
5 | CCc1cc2ncc(CN3CCN(c4ccc(C(=O)N5CCN(C(=O)C6CCN(c7ccc(C(=O)N[C@H]8CC[C@H](Oc9ccc(C#N)c(Cl)c9)CC8)nn7)CC6)CC5)nc4)CC3)cc2[nH]c1=O [Compound 60, N-((1r,4r)-4-(3-Chloro-4-cyanophenoxy)cyclohexyl)-6-(4-(4-(5-(4-((7-ethyl-6-oxo-5,6-dihydro-1,5-naphthyridin-3-yl)methyl)piperazin-1-yl)picolinoyl)piperazine-1-carbonyl)piperidin-1-yl)pyridazine-3-carboxamide] |  |  |  | < 4.52 | 0.5 to 5 µM | > 7.00 | 0.5 to 5 µM | < 5.00
